Data on 1 compound can be found in publication PMC10266261, “A High-Throughput Approach to Identify Specific Neurotoxicants / Developmental Toxicants in Human Neuronal Cell Function Assays” (ALTEX, 2018).

The subject of data set [1] is LUHMES cells. In words: cells. The settings on record: for EC50: Homo sapiens; for classification by BMC ratio (BMCV/BMCNA): screen data. It is filed as cell-based, human. The method, then: For the NeuriTox test (= UKN4), LUHMES (Lund human mesencephalic) cells were characterized and cultured as described in detail earlier ([Krug et al., 2013]; [Lotharius et al., 2005]; [Scholz et al., 2011]). Briefly, cells were maintained in proliferation medium (PM: AdvDMEM/F12 supplemented with 2 mM glutamine, 1x N2 supplement and 40 ng/ml fibroblast growth factor-2) in PLO/fibronectin coated flasks (50 μg/ml poly-L-ornithine (PLO) and 1 μg/ml fibronectin). For differentiation, cells were seeded at a density of 46,000 cells/cm^2 in PM. After 24 h, they were switched to differentiation medium (DM) containing AdvDMEM/F12 supplemented with 2 mM glutamine, 1x N2 supplement, 2.25 μM tetracycline, 1 mM dibutyryl 3’,5’-cyclic adenosine monophosphate (cAMP), and 2 ng/ml recombinant human glial cell derived neurotrophic factor (GDNF).
For the NeuriTox test, LUHMES cells were differentiated for 48 h and seeded into 96 well plates at a density of 100,000 cells/cm^2 in a volume of 90 μl DM without cAMP and GDNF. Treatment was initiated applying 10 μl of a 10x concentrated treatment solution one hour after seeding. At 24 h after treatment, staining mix (SM) was applied (final concentrations: 1 μg/ml H-33342, 1 μM calcein-AM).
(§1) Image acquisition was performed with an ArrayScan VTI HCS (high content imaging) microscope (Cellomics, Waltham, MA, USA).
The procedure was applied as detailed earlier ([Hoelting et al., 2016]; [Stiegler et al., 2011]). After automated imaging, an algorithm was applied that identified the neuronal somata (based on identified nuclei) and subtracted the somatic area from the total neuronal area to obtain the neurite area (NA), i.e., the number of pixels per field covered by neurites. Viability analysis was performed on the same pictures using combined information from H-33342 and calcein channels. Cells with normal-sized nuclei that were calcein-positive were counted as live cells, whereas H-33342 single-positive cells were counted as dead cells. Viability (V) was expressed as percentage of live cells relative to control.
(§2) Neurite area (NA) and viability (V) were always expressed as percentage of the DMSO control. In a first step, matched technical replicates were averaged. […] Curve fitting was performed employing a 4-parameter log-logistic function with least squares fit. The upper asymptote of the fit was forced to 100%, the lower asymptote was variable. The variation of DMSO controls was calculated from pooled values of DMSO controls over several experiments.
For calculation of the benchmark concentration values (BMC), a benchmark response (BMR) of three standard deviations of DMSO solvent controls of all assay plates (= “3 x noise level”) was used. […] To identify specific effects on neurite outgrowth, the EC50 ratio of EC50(viability)/EC50(neurite area) was calculated. The NeuriTox test system has a specificity threshold ratio of 4, the PeriTox test system has one of 3 ([Hoelting et al., 2016]; [Krug et al., 2013]).
If V was not affected at the highest tested concentration (HTC), then 4 x HTC was used as surrogate EC50(V) (marked with ♦; for EC25 calculation, the HTC was doubled in this case) ([Krug et al., 2013]).
For the actual screening procedure, a defined workflow was established that contained several pre-determined decision points. All compounds were tested at 1:1000 dilutions of their stock concentration, and at subsequent 3-fold dilution levels. For most compounds, the stock was 20 mM, so that the test concentrations were 20 μM, 6.7 μM, 2.2 μM, 0.7 μM, 0.25 μM, 82 nM, 27 nM, 9 nM, 3 nM, and 1 nM. For 2,2’,4,4’,5,5’-hexabromodiphenyl-ether, chrysene, dibenz(a,h)anthracene, bis(tributyltin) oxide, benzo[g,h,i]perylene, and 2,3,7,8-tetrachlorodibenzo-p-dioxin lower stock concentrations were used.

Data set [2] relates to cardiomyocytes. The settings on record: specific = cardio-physiologic parameters affected after 30 min at three-fold lower concentration than viability and no effect on viability after 24 h; ref Sirenko et al., 2017; cited from earlier work.
In data set [3] the test system is immature human dorsal root ganglia neurons. Put plainly: cells. The data set is classed as cell-based. The settings on record: for EC50: Homo sapiens, Neuron. How it is done: The PeriTox test (= UKN5) is based on cells differentiated from the H9 human embryonic stem cell (hESC) line (WA09 line), which was obtained from WiCell (Madison, WI, USA). The import of cells and the experiments were authorized under license no. 170–79-1–4-27 (Robert Koch Institute, Berlin, Germany).
After one hour, 25 μl PDM with 4x concentrated serial dilutions of the test compounds was added to the cells. At 23 h after treatment, the cells were stained with SM and incubated for one additional hour at 37°C.
as §1
After automated imaging, an algorithm was applied that identified the neuronal somata (based on identified nuclei) and subtracted the somatic area from the total neuronal area to obtain the neurite area (NA), i.e., the number of pixels per field covered by neurites. […] Viability (V) was expressed as percentage of live cells relative to control.
as §2
For calculation of the benchmark concentration values (BMC), a benchmark response (BMR) of three standard deviations of DMSO solvent controls of all assay plates (= “3 x noise level”) was used. […] To identify specific effects on neurite outgrowth, the EC50 ratio of EC50(viability)/EC50(neurite area) was calculated.
This method uses human immature dorsal root ganglia neurons (iDRG) that are produced from pluripotent stem cells that are still in a phase of neurite growth. Like in the NeuriTox assay, exposure to toxicants in this test is for 24 h, and readouts for viability (V) and neurite area (NA) are also conducted in a similar way (Fig. 7A).

Where [4] appears, read: 24 h, read-out: EC50(NA), neurite area.

Structures are written as SMILES. Like-named read-outs stand apart in the source and are kept apart here.

`CC(C)[C@@H]1NC(=O)[C@H](C)OC(=O)[C@@H](C(C)C)NC(=O)[C@@H](C(C)C)OC(=O)[C@H](C(C)C)NC(=O)[C@H](C)OC(=O)[C@@H](C(C)C)NC(=O)[C@@H](C(C)C)OC(=O)[C@H](C(C)C)NC(=O)[C@H](C)OC(=O)[C@@H](C(C)C)NC(=O)[C@@H](C(C)C)OC1=O` [Valinomycin]: the EC50 in data set [1] (setting [4]) amounted to 10 nM; in data set [1] (24 h, read-out: EC50(V), viability), 6200 nM; in data set [1] (read-out: EC50 for reduction of neurite area) it was 10 nM; in data set [3] (setting [4]), 3 nM; in data set [3] (read-out: EC50(NA), neurite area), 20 nM; in data set [3] (read-out: EC50(V), viability, surrogate marked ♦) it was 200 nM. For the same compound, the “ratio EC50(V)/EC50(NA)” value in data set [1] (hit confirmation, ≥ 4 = specific (developmental) neurotoxicant) came out at 620. The results for the “classification by BMC ratio (BMCV/BMCNA)” value in data set [1] (threshold changed to 2) and in data set [1] (threshold set at 3.16) were “specific DNT-compounds” and “cytotoxic”, respectively. The “classification in the NeuriTox screen” value in data set [1] (screen, up to 20 μM, 24 h, hit = NA decreased at concentrations not affecting viability) is listed as “active hit compounds”. The “classification in the cardiotoxicity test method” value in data set [2] is “generally cytotoxic”. The “classification in the PeriTox screen” value in data set [3] (three independent screen runs, up to 20 μM) was “active hit compounds”.
